According to paper PMC7369637, “Inhibition of Resistance-Refractory P. falciparum Kinase PKG Delivers Prophylactic, Blood Stage, and Transmission-Blocking Antiplasmodial Activity” (Cell Chemical Biology, 2020):

Tests used:
[1] = system: Pf ABS parasites; assay: Light microscopy of ABS development; type: cell-based, Plasmodium falciparum; details: ring-stage parasites exposed to 350 nM (approximately 3 × IC50)
[2] = system: mature (stage V) NF54 gametocytes; assay: Gametocyte susceptibility, saponin lysis-based MitoTracker high-content imaging assay; type: cell-based; details: Plasmodium falciparum, saponin lysis-based sexual stage assay, 72 h
Method: This was determined using two separate assays. The first involved MitoTracker staining and high-content imaging. Mature (stage V) gametocytes were generated from NF54 ABS cultures as described elsewhere ([Plouffe et al., 2016]). Briefly, asexual parasites were cultured at 5% hematocrit in O^+ human erythrocytes in serum-containing complete media (RPMI 1640 (Life Technologies), 0.05 mg/ml gentamicin (Life Technologies), 0.014 mg/ml hypoxanthine (Sigma), 38.4 mM HEPES (Sigma), 0.2% (w/v) sodium bicarbonate (Sigma), D-glucose 0.2% (w/v) (Sigma), 3.4 mM sodium hydroxide (Sigma), 4.3% (v/v) heat-inactivated human serum (O^+, Interstate Blood bank), and 0.2% (w/v) AlbuMAX® II (Life Technologies)). […] The second assay assessed gametocyte susceptibility using a luciferase-based assay with 3D7elo1-pfs16-CBG99 transgenic parasites ([Cevenini et al., 2014]). […] Cell viability was then evaluated by adding a non-lysing formulation of 0.5 mM D-Luciferin substrate and measuring luciferase activity for 0.5 s on a Varioskan™ Flash Multimode Reader (Thermo Scientific). The percent of viability was calculated as a function of drug concentration and IC50 values were derived by non-linear regression analysis and curve fitting (using GraphPad Prism 6.0).

[3] = system: ed. Dd2-B2 TKL3I1250M+T1268R; assay: 72-h ABS assay, CRISPR/Cas9-edited double-mutant line; type: cell-based; details: Plasmodium falciparum, parent Dd2-B2 wild-type
Source text: Supplement mmc2.xlsx, sheet "Table S1 (I)" | column: Mean IC50

[4] = system: PP1 cKD line; assay: Compound susceptibility assay using cKD lines (72 h, Renilla luciferase); type: cell-based, Plasmodium falciparum; details: Plasmodium falciparum
Source text: (§1) To study the interaction between the compounds and PKG (PF3D7_1436600), AAT (PF3D7_1231400), CDPK1 (PF3D7_0217500), TKL3 (PF3D7_1349300), PP1 (PF3D7_1414400), and URP (PF3D7_0808300), cKD lines were generated by fusing the transcripts with RNA aptamers for translation regulation with the TetR/DOZI system ([Ganesan et al., 2016]). The right homology regions (RHR) of each target gene were amplified by PCR, using the primers listed in Table S1 (A), and along with the left homology regions (LHR) were fused to the re-codonized 3'-end region of the gene. Single guide RNA fragments were synthesized using the BioXP™ 3200 System (SGI-DNA; Table S1 (A)) and were cloned into the pSN054 vector ([Nasamu et al., 2019]) to install the C-terminal epitope tags V5 and 2x-hemagglutinin (HA) followed by a 10x RNA aptamer array and the TetR-DOZI expression cassette. This cassette also contained Blasticidin S-deaminase for selection in the parasites and the reporter gene Renilla luciferase (RLuc). The 3'-end of each target was re-codonized to avoid further modifications of the edited locus in the parasite via removal of the PAM site. Donor vector generation was carried out via Gibson assembly, and the final construct sequence was confirmed by restriction digests and Sanger sequencing.
(§2) Transfection into parasites was carried out by preloading erythrocytes with linearized vectors as described previously ([Deitsch et al., 2001]). Briefly, 50 μg of purified plasmid DNA was mixed with human RBC and subjected to 8 square wave electroporation pulses of 365 V for 1 ms each, separated by 0.1 s in a 0.2 cm cuvette. The plasmid DNA preloaded cells were inoculated with NF54 parasites expressing Cas9 and T7 RNA polymerase, maintained in 500 nM anhydrotetracycline (aTc, Sigma-Aldrich 37919), and drug selection with 2.5 μg/mL of Blasticidin (RPI Corp B12150-0.1) was initiated four days after transfection. Emergence of transfectants was monitored via Giemsa smears and RLuc measurements.
(§3) Synchronized ring-stage cKD parasites in varying aTc concentrations (high = 50 nM, intermediate = 1.5 nM, low = 1 nM, and no aTc) were distributed into the drug plate. No-drug treatment and treatment with a lethal dose of chloroquine (200 nM) served as reference controls.

[5] = system: CDPK1 cKD line; assay: as above; type: cell-based, Plasmodium falciparum; details: for IC50: Plasmodium falciparum, CDPK1 cKD line
Source text: as §1, §2, §3

[6] = system: AAT cKD line; assay: as above; type: cell-based, Plasmodium falciparum; details: for IC50: Plasmodium falciparum, AAT cKD line
Source text: as §1, §2, §3

[7] = system: PKG cKD line; assay: as above; type: cell-based, Plasmodium falciparum; details: for IC50: Plasmodium falciparum, PKG cKD line
Source text: as §1, §2, §3

[8] = system: TKL3 cKD line; assay: as above; type: cell-based, Plasmodium falciparum; details: for IC50: Plasmodium falciparum, TKL3 cKD line
Source text: as §1, §2, §3

[9] = system: URP cKD line; assay: as above; type: cell-based, Plasmodium falciparum; details: Plasmodium falciparum
Source text: as §1, §2, §3

Which results are given for `CC(C)(CN)c1nc(-c2ccc(Cl)c(O)c2)c(-c2ccncc2)[nH]1` [MMV030084]?
ABS development by light microscopy [1]: halted at the schizont stage; IC50 [2]: > 40000 nM; IC50 [3]: 347 nM; IC50 ([4]; Control, [aTc] used 50.0): 39.2 nM; IC50 ([4]; KD, [aTc] used 1.5): 57 nM; IC50 ([5]; Control, [aTc] used 50.0): 45.4 nM; IC50 ([5]; KD, [aTc] used 1.0): 41.5 nM; Change in susceptibility when CDPK1 was knocked down ([5]; cKD vs control): No change; IC50 ([6]; Control, [aTc] used 50.0): 50.6 nM; IC50 ([6]; KD, [aTc] used 0.0): 29.8 nM; Decrease in IC50 under AAT cKD conditions ([6]; cKD vs control): 1.7 fold; IC50 ([7]; Control, [aTc] used 50.0): 27.4 nM; IC50 ([7]; KD, [aTc] used 1.0): 6.6 nM; Sensitization when PKG was knocked down ([7]; cKD vs control): 4.2 fold; IC50 ([8]; Control, [aTc] used 50.0): 42.4 nM; IC50 ([8]; KD, [aTc] used 0.0): 88.6 nM; Increase in IC50 induced by TKL3 knockdown ([8]; cKD vs isogenic control): 2.1 fold; IC50 ([9]; Control, [aTc] used 50.0): 35.9 nM; IC50 ([9]; KD, [aTc] used 0.0): 42.4 nM
